Data on four compounds can be found in publication PMC3968228 (Cancer chemotherapy and pharmacology, 2014).

The conditions of data set [1]: three new patients on ritonavir-based cART, docetaxel 70 to 100 mg/m^2; cited from earlier work.
The conditions of data set [2]: for elimination pattern of docetaxel concentration-time profile: docetaxel 20 mg/kg i.v., male FVB mice.
The conditions of data set [3]: with ritonavir; cited from earlier work.
The mark [4] stands for this setting: male, FVB, mouse, plasma, iv, 20 mg/kg.

Broadly, the AUC(0-inf) is total exposure, with the tail of the curve extrapolated. Read a high AUC(0-inf) as more exposure. Broadly, the Cmax is the maximum level reached in the sampled fluid or tissue. Broadly, the clearance is the rate of elimination divided by the concentration. High values mean a high capacity for elimination, low ones a low capacity for elimination. `CC(=O)O[C@@]12CO[C@@H]1C[C@H](O)[C@@]1(C)C(=O)[C@H](O)C3=C(C)[C@@H](OC(=O)[C@H](O)[C@@H](NC(=O)OC(C)(C)C)c4ccccc4)C[C@@](O)([C@@H](OC(=O)c4ccccc4)[C@H]21)C3(C)C` [Docetaxel]: the toxicity entry in data set [1] is on record as “severe toxicities”. Moreover, the “elimination pattern of docetaxel concentration-time profile” value (“elimination pattern” for short) in data set [2] (plasma) is given as “triphasic”. In data set [2] (setting [4]), this compound had an AUC(0-inf) of 10300 ng·h/mL, a Cmax of 18100 ± 2200 ng/mL, a clearance of 32.2 mL/min/kg and a concentration at 24 hr of 9 ± 0.7 ng/mL.

As for `O=C1Nc2ccc(Cl)cc2[C@@](C#CC2CC2)(C(F)(F)F)O1` [efavirenz, Efavirenz], the “effect on docetaxel exposure (AUC)” value in data set [2] (CYP3A4 inducers p.o. x4d before docetaxel 20 mg/kg i.v.) is recorded as “did not have a significant effect”. In data set [2] (plasma), the “elimination pattern” value is “triphasic”.

Turning to `CC(=O)N1CCN(c2ccc(OCC3COC(Cn4ccnc4)(c4ccc(Cl)cc4Cl)O3)cc2)CC1` (stereo not shown) [ketoconazole, Ketoconazole], in data set [2] (plasma), the “elimination pattern” value is “biphasic”.

Consider `CC(C)c1nc(CN(C)C(=O)N[C@H](C(=O)N[C@@H](Cc2ccccc2)C[C@H](O)[C@H](Cc2ccccc2)NC(=O)OCc2cncs2)C(C)C)cs1` [ritonavir, Ritonavir], for which the “oral bioavailability of docetaxel” value in data set [3] is listed as 130-160 % of control.
